Measurements reported in patent US20070141171A1, “NOVEL COMPOSITION AND METHOD FOR THE TREATMENT OF HYPERTENSION” (priority 2003, published 2007).

Legend:
Format in all cases: cell-based
[1] = test system: cultured human aortic smooth muscle cells (SMC); assay: SMC collagen gel contraction stimulated by angiotensin II; settings: for GA, % vs 100% control / increase in gel area (GA) vs ATII: 30 mcM; for GA, % vs 100% control: ATII alone 76%; for rank of effectiveness on ATII-induced gel contraction (catechins) / rank of effectiveness on ATII (polyphenols): at 30; for activity as inhibitor of Ang II-stimulated gel contraction: summary statement; for effect on ATII-induced gel: 1-4 mM, individual or comb
Experimental: Plant-derived bioflavonoids have been recognized to support arterial wall structural integrity and interfere with a variety of pro-atherosclerotic stimuli. We tested whether bioflavonoids have an effect on the contractile activity of cultured human aortic smooth muscle cells (SMC) embedded in a three-dimensional type I collagen (1 mg/mL) matrix. […]
The following starting material and equipment were used. • 1. Cultured vascular smooth muscle cells (SMC) isolated from human aorta.
Cells are used from 4th to 8th passages. • 2. Human collagen type I. • 3. Angiotensin II. • 4. Epican Forte (composition shown in Table 1, available from Matthias Rath, Inc., and all ingredients commercially available) • 5. Epigallocatechin gallate (EGCG) • 6. Quercetin (chemical structure is well defined) • 7. Cell culture medium (DMEM) • 8. 24 well plastic cell culture plate pre-incubated with 2 mg/ml bovine serum albumin. • 9. Digital camera • 10. Digital image analyzing software (Scion Corporation). • 11. Zymography gel electrophoresis assay (Novorex Corp).
Confluent culture of SMC and suspended from culture flask by trypsinization and washed with phosphate-buffered saline (PBS) from serum-containing medium. Cell concentration in suspension was brought to 500,000 cell per mL in serum-free DMEM. Cell suspension was then mixed 1:1 with ice-cold 2 mg/ml collagen type I solution in PBS. Final concentration of collagen was 1 mg/mL, final cell concentration is 250,000 per mL. Collagen-SMC suspension was distributed by 300 microL to the wells of 24 well plate in such a manner to cover the entire bottom surface of the well. The plate was then incubated for one hour at 37° C. to allow gel to polymerize. 0.5 mL of experimental serum-free medium containing no additions (control), […] was added to polymerized gel, plate was then gently tapped on the side to detach gel from the bottom of plastic well, and plate was then placed to incubator with the controlled atmosphere containing 5%CO2 at 37° C. for incubation. After 24 hour incubation plate was taken from the incubator and plate image with floating gels was taken using digital camera. Gel flat surface area is measured with digital image analyzing software. Sample of cell culture media was taken for analysis of matrix metalloproteinases activity by zymography (Novorex Corp). Experiments were performed in triplicates and results are presented as a mean +/−SD.

[2] = test system: cultured human aortic smooth muscle cells (SMC); assay: SMC collagen gel contraction stimulated by Thrombin; settings: for GA, % vs 100% control: 30 mcM, Thrombin alone 70%
[3] = test system: cultured human aortic smooth muscle cells (SMC); assay: SMC collagen gel contraction stimulated by Angiotensin I; settings: Mar. 25, 2003; ATI 330-1000 nM alone
[4] = Mar. 25, 2003, in combination with EF

Molecule: C[C@@H]1O[C@@H](OC[C@H]2O[C@@H](Oc3c(-c4ccc(O)c(O)c4)oc4cc(O)cc(O)c4c3=O)[C@H](O)[C@@H](O)[C@@H]2O)[C@H](O)[C@H](O)[C@H]1O [Rutin]
- GA, % vs 100% control ([1]; Apr. 2, 2003): 80%
- GA, % vs 100% control ([2]; Apr. 2, 2003): 56%

Molecule: O=C(O[C@@H]1Cc2c(O)cc(O)cc2O[C@@H]1c1ccc(O)c(O)c1)c1cc(O)c(O)c(O)c1 [ECG]
- rank of effectiveness on ATII-induced gel contraction (catechins) ([1]; Apr. 17, 2003): more effective than EC=C

Molecule: O=C(O)[C@@H]1CCCN1 [Proline]
- effect on ATII GA reduction ([1]; Mar. 28, 2003, 0.25-1 mM): did not effect

Molecule: Angiotensin I (DRVYIHPFHL; Angiotensin-1; UniProt P01019 25-34, looked up) [ATI, stimulus of gel contraction]
- gel reduction [3]: gel reduction at 1000 nM only

Molecule: N=C(N)NCCC[C@H](N)C(=O)O [Arginine]
- effect on ATII-induced gel reduction ([1]; Mar. 20, 2003, Arginine 0.5-2 mM): no significant effect

Molecule: Angiotensin II (DRVYIHPF; Angiotensin-2; UniProt P01019 25-32, looked up) [ATII, stimulus of gel contraction, reference compound]
- GA reduced by ([1]; Apr. 2, 2003, ATII alone at 1 mcM): 24%
- effect on gel contraction ([1]; Mar. 7, 2003, ATII 1 mcM alone): no effects
- gel reduction to % of Control 100% ([1]; Mar. 11, 2003, ATII 1 mcM alone): 59%
- gel reduction to % of 100% control ([1]; Mar. 18, 2003, ATII 1 mcM alone): 23%
- gel reduction to % of 100% control ([1]; Mar. 20, 2003, ATII 1 mcM alone): 81%
- reduction in gel ([1]; Mar. 25, 2003, ATII 110-330-1000 nM alone): dose dependent reduction in gel
- GA reduction ([1]; Mar. 26, 2003, ATII 1 mcM alone): 21%

Molecule: Oc1ccc(C=Cc2cc(O)cc(O)c2)cc1 [Resveratrol]
- GA, % vs 100% control ([1]; Apr. 2, 2003): 88%
- rank of effectiveness on ATII (polyphenols) ([1]; Apr. 17, 2003): Querc30=>Genist30=>Resver30=>Rutin30
- effect on gel area vs ATII ([1]; Mar. 25, 2003, 15 mcM, alone): no effect
- effect on EF effect ([1]; Mar. 25, 2003, 15 mcM, with EF): no effect
- increase in gel area (GA) vs ATII ([1]; Mar. 25, 2003, alone): 45%
- increase in gel area (GA) vs ATII [1, 4]: 104%
- GA, % vs 100% control ([2]; Apr. 2, 2003): 106%

Molecule: O=C1O[C@H]([C@@H](O)CO)C(O)=C1O [AsA, ascorbic acid]
- activity as inhibitor of Ang II-stimulated gel contraction ([1]; 1 micromol/L Ang II, 24 hours): not significantly active
- effect on ATII GA reduction ([1]; Apr. 2, 2003, AsA 200 mcM): had no effect
- effect on ATII-induced gel reduction ([1]; Apr. 17, 2003, AsA 500 mcM alone): did not have effect
- effect on ATII-induced gel reduction ([1]; Apr. 17, 2003, AsA 500 mcM in combination with 10 EGCG): did not have effect
- gel reduction to % of 100% control ([1]; Mar. 18, 2003, ATII 1 mcM + AsA 100 mcM): 30%
- gel reduction to % vs 100% ATII 1 mcM ([1]; Mar. 20, 2003, AsA 0.5 mM + ATII): 90%
- effect on Thrombin GA reduction ([2]; Apr. 2, 2003, AsA 200 mcM): had no effect

Molecule: [Ca+2] [Ca]
- effect on ATII-induced gel ([1]; Mar. 20, 2003): no effects

Molecule: Oc1cc(O)c2c(c1)OC(c1ccc(O)c(O)c1)C(O)C2 (stereo not drawn) [C]
- rank of effectiveness on ATII-induced gel contraction (catechins) ([1]; Apr. 17, 2003): EC=C

Molecule: Thrombin [reference compound]
- GA reduced by ([2]; Apr. 2, 2003, Thrombin alone at 1 mcM): 30%
- effect on gel contraction ([2]; Mar. 7, 2003, Thrombin 0.1 U/mL alone): no effects
- gel reduced by ([2]; Mar. 10, 2003, Thrombin 0.1 U/mL alone, 9% in control): 58%

Molecule: NCCCC[C@H](N)C(=O)O [Lysine]
- effect on ATII GA reduction ([1]; Mar. 28, 2003, 0.25-1 mM): did not effect

Molecule: CC(=O)N[C@@H](CS)C(=O)O [NAC, N-Acetyl Cystein]
- GA returned to % of control ([1]; Mar. 26, 2003, NAC 2 mcM, ATII 1 mcM (21% reduction)): 100%
- effect on ATII GA reduction ([1]; Mar. 26, 2003, NAC higher concentration up to 60 mcM): did not have any effect

Molecule: Oc1cc(O)c2c(c1)O[C@H](c1ccc(O)c(O)c1)[C@H](O)C2 [EC]
- rank of effectiveness on ATII-induced gel contraction (catechins) ([1]; Apr. 17, 2003): EC=C

Molecule: O=c1c(-c2ccc(O)cc2)coc2cc(O)cc(O)c12 [Genistein]
- GA, % vs 100% control ([1]; Apr. 2, 2003): 96%
- rank of effectiveness on ATII (polyphenols) ([1]; Apr. 17, 2003): Querc30=>Genist30=>Resver30=>Rutin30
- increase in gel area (GA) vs ATII ([1]; Mar. 25, 2003, alone): 34%
- increase in gel area (GA) vs ATII [1, 4]: 11%
- GA, % vs 100% control ([2]; Apr. 2, 2003): 78%

Molecule: O=c1c(O)c(-c2ccc(O)c(O)c2)oc2cc(O)cc(O)c12 [Quercetin]
- activity as inhibitor of Ang II-stimulated gel contraction ([1]; 1 micromol/L Ang II, 24 hours): most active inhibitors of gel contraction
- GA, % vs 100% control ([1]; Apr. 2, 2003): 167%
- rank of effectiveness on ATII (polyphenols) ([1]; Apr. 17, 2003): Querc30=>Genist30=>Resver30=>Rutin30
- inhibition at 30 µM ([1]; Homo sapiens, 30 micromol/L, 1 micromol/L Ang II, 24 hours, read-out: inhibition of Ang II-induced gel contraction): 120%
- GA, % vs 100% control ([2]; Apr. 2, 2003): 133%

Molecule: O=C(O[C@@H]1Cc2c(O)cc(O)cc2O[C@@H]1c1cc(O)c(O)c(O)c1)c1cc(O)c(O)c(O)c1 [EGCG, Epigallocatechin gallate]
- activity as inhibitor of Ang II-stimulated gel contraction ([1]; 1 micromol/L Ang II, 24 hours): most active inhibitors of gel contraction
- inhibition of Ang II-induced gel contraction ([1]; 30 micromol/L, 1 micromol/L Ang II, 24 hours): 97%
- GA, % vs 100% control ([1]; Apr. 2, 2003): 150%
- effect on gel contraction by ATII ([1]; Apr. 17, 2003, EGCG 3.3-10-30 mcM): dose-dependently reduced gel contraction
- rank of effectiveness on ATII-induced gel contraction (catechins) ([1]; Apr. 17, 2003): more effective than ECG30
- gel reduction to % of 100% control ([1]; Mar. 18, 2003, ATII 1 mcM + EGCG 15 mcM): 30%
- GA, % vs 100% control ([2]; Apr. 2, 2003): 206%

Molecule: [Mg+2] [Mg]
- effect on ATII-induced gel ([1]; Mar. 20, 2003): no effects
